The source made the active and inactive calls. The rule behind the calls is not given here. Square brackets hold non-standard residues; d marks the D form. Peptide text beside a SMILES is read from it. * marks the point of attachment. Boc = CC(C)(C)OC(=O)*
target: T1, fMet-Leu-Phe receptor (Homo sapiens) (UniProt P21462); assay: Antagonist activity at formyl peptide receptor in human HL60 cells assessed as fMLP EC50 at 1 uM incubated for 5 mins prior to fMLP challenge by Fura-2 method; assay type: cell-based; settings: HL-60
T1 sequence (whole entry): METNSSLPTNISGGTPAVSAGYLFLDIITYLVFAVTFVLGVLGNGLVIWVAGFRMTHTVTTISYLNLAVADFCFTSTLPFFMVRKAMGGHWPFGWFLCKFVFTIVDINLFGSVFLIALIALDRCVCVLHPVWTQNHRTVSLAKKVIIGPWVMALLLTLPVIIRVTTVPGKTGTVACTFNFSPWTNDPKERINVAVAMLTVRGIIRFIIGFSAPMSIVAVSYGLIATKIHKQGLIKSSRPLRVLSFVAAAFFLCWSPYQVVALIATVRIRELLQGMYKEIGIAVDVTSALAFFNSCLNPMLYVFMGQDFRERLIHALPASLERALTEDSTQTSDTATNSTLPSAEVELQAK

| inhibition | Compound |
| --- | --- |
| inactive | CC(C)C[C@@H](NC(=O)[C@H](Cc1ccccc1)NC(=O)[C@@H](CC(C)C)NC(=O)[C@H](Cc1ccccc1)NC(=O)OC(C)(C)C)C(=O)N[C@@H](Cc1ccccc1)C(=O)O (Boc-F[dL]F[dL]F-OH) |

target: T1, fMet-Leu-Phe receptor (Homo sapiens); assay: Antagonist activity at formyl peptide receptor in human HL60 cells assessed as inhibition of MMK1-induced calcium mobilization at 1 to 10 uM incubated for 5 mins prior to MMk1 challenge by Fura-2 method; assay type: functional, cell-based; settings: HL-60

| inhibition | Compound |
| --- | --- |
| inactive | CC(C)C[C@@H](NC(=O)[C@H](CC1=CCCCC1)NC(=O)[C@@H](CC(C)C)NC(=O)[C@H](Cc1ccc(C(=O)c2ccccc2)cc1)NC(=O)OC(C)(C)C)C(=O)N[C@@H](Cc1ccccc1)C(=O)O |
| inactive | CC(C)C[C@@H](NC(=O)[C@H](Cc1ccccc1)NC(=O)[C@@H](CC(C)C)NC(=O)[C@H](Cc1ccc(C(=O)c2ccccc2)cc1)NC(=O)OC(C)(C)C)C(=O)N[C@@H](Cc1ccccc1)C(=O)O |

target: T2, fMet-Leu-Phe receptor (Homo sapiens, UniProt P21462); assay: Antagonist activity at formyl peptide receptor in human HL60 cells assessed as inhibition of fMLP-induced calcium mobilization incubated for 5 mins prior to fMLP challenge by Fura-2 method; settings: not given
T2 sequence (P21462 whole entry): T1 sequence (whole entry)

| IC50 [nM] | Compound |
| --- | --- |
| 140 | CC(C)C[C@@H](NC(=O)[C@H](CC1=CCCCC1)NC(=O)[C@@H](CC(C)C)NC(=O)[C@H](Cc1ccc(C(=O)c2ccccc2)cc1)NC(=O)OC(C)(C)C)C(=O)N[C@@H](Cc1ccccc1)C(=O)O |
| 420 | CC(C)C[C@@H](NC(=O)[C@H](Cc1ccccc1)NC(=O)[C@@H](CC(C)C)NC(=O)[C@H](Cc1ccc(C(=O)c2ccccc2)cc1)NC(=O)OC(C)(C)C)C(=O)N[C@@H](Cc1ccccc1)C(=O)O |

target: T1, fMet-Leu-Phe receptor (Homo sapiens); assay: Agonist activity at formyl peptide receptor in human HL60 cells at 10 uM by Fura-2 method; assay type: cell-based; settings: HL-60

| Activity | Compound |
| --- | --- |
| inactive | CC(C)C[C@@H](NC(=O)[C@H](Cc1ccccc1)NC(=O)[C@@H](CC(C)C)NC(=O)[C@H](Cc1ccccc1)NC(=O)OC(C)(C)C)C(=O)N[C@@H](C)C(=O)O |
| inactive | CC(C)C[C@@H](NC(=O)[C@H](Cc1ccccc1)NC(=O)[C@@H](CC(C)C)NC(=O)[C@H](Cc1ccccc1)NC(=O)OC(C)(C)C)C(=O)N[C@@H](Cc1ccccc1)C(=O)O (Boc-F[dL]F[dL]F-OH) |
| inactive | CC(C)C[C@@H](NC(=O)[C@H](Cc1ccccc1)NC(=O)OC(C)(C)C)C(=O)N[C@@H](Cc1ccccc1)C(=O)N[C@@H](C)C(=O)N[C@@H](Cc1ccccc1)C(=O)O |
| inactive | CC(C)C[C@@H](NC(=O)[C@H](Cc1ccccc1)NC(=O)[C@H](C)NC(=O)[C@H](Cc1ccccc1)NC(=O)OC(C)(C)C)C(=O)N[C@@H](Cc1ccccc1)C(=O)O |
| inactive | CC(C)C[C@@H](NC(=O)[C@H](C)NC(=O)OC(C)(C)C)C(=O)N[C@@H](Cc1ccccc1)C(=O)N[C@H](CC(C)C)C(=O)N[C@@H](Cc1ccccc1)C(=O)O |
| inactive | CC(C)C[C@@H](NC(=O)[C@H](C)NC(=O)[C@@H](CC(C)C)NC(=O)[C@H](Cc1ccccc1)NC(=O)OC(C)(C)C)C(=O)N[C@@H](Cc1ccccc1)C(=O)O |

target: T2, fMet-Leu-Phe receptor; assay: Antagonist activity at formyl peptide receptor in human HL60 cells assessed as inhibition of intracellular calcium mobilization incubated for 5 mins prior to fMLP challenge by Fura-2 method; assay type: functional, cell-based, HL-60; settings: not given

| Kd [nM] | Compound |
| --- | --- |
| 69 | CC(C)C[C@@H](NC(=O)[C@H](Cc1ccccc1)NC(=O)[C@@H](CC(C)C)NC(=O)[C@H](Cc1cn(C(=O)OC(C)(C)C)c2ccccc12)NC(=O)OC(C)(C)C)C(=O)N[C@@H](Cc1ccccc1)C(=O)O |
| 350 | CC(C)C[C@@H](NC(=O)[C@H](Cc1ccccc1)NC(=O)[C@@H](CC(C)C)NC(=O)[C@H](Cc1ccccc1)NC(=O)OC(C)(C)C)C(=O)N[C@@H](C)C(=O)O |
| 140 | CC(C)C[C@@H](NC(=O)[C@H](Cc1ccccc1)NC(=O)[C@@H](CC(C)C)NC(=O)[C@@H](NC(=O)OC(C)(C)C)[C@@H](C)OC(C)(C)C)C(=O)N[C@@H](Cc1ccccc1)C(=O)O |
| 150 | CC(C)C[C@@H](NC(=O)[C@H](Cc1ccccc1)NC(=O)[C@@H](CC(C)C)NC(=O)[C@H](Cc1ccccc1)NC(=O)OC(C)(C)C)C(=O)N[C@@H](Cc1ccc(C(=O)c2ccccc2)cc1)C(=O)O |
| 150 | CC(C)C[C@@H](NC(=O)[C@H](Cc1ccc(C(=O)c2ccccc2)cc1)NC(=O)[C@@H](CC(C)C)NC(=O)[C@H](Cc1ccccc1)NC(=O)OC(C)(C)C)C(=O)N[C@@H](Cc1ccccc1)C(=O)O |
| 830 | CC(C)C[C@@H](NC(=O)[C@H](Cc1ccccc1)NC(=O)OC(C)(C)C)C(=O)N[C@H](C(=O)N[C@H](CC(C)C)C(=O)N[C@@H](Cc1ccccc1)C(=O)O)[C@@H](C)OC(C)(C)C |
| 200 | CC(C)C[C@H](NC(=O)[C@@H](CC(C)C)NC(=O)[C@H](Cc1ccccc1)NC(=O)OC(C)(C)C)C(=O)N[C@H](CC(C)C)C(=O)N[C@@H](Cc1ccccc1)C(=O)O |
| 180 | CC(C)C[C@@H](NC(=O)[C@H](Cc1ccccc1)NC(=O)[C@@H](CC(C)C)NC(=O)[C@H](Cc1ccccc1)NC(=O)OC(C)(C)C)C(=O)N[C@@H](COC(C)(C)C)C(=O)O |
| 25 | CC(C)C[C@@H](NC(=O)[C@H](CC1CCCCC1)NC(=O)[C@@H](CC(C)C)NC(=O)[C@H](Cc1ccccc1)NC(=O)OC(C)(C)C)C(=O)N[C@@H](Cc1ccccc1)C(=O)O |
| 150 | CC(C)C[C@@H](NC(=O)[C@H](Cc1ccccc1)NC(=O)[C@@H](CC(C)C)NC(=O)[C@H](CCCCNC(=O)C1CCCCC1)NC(=O)OC(C)(C)C)C(=O)N[C@@H](Cc1ccccc1)C(=O)O |
| 66 | CC(C)C[C@@H](NC(=O)[C@H](Cc1ccccc1)NC(=O)[C@@H](CC(C)C)NC(=O)[C@H](CC1CCCCC1)NC(=O)OC(C)(C)C)C(=O)N[C@@H](Cc1ccccc1)C(=O)O |
| 140 | CC(C)C[C@@H](NC(=O)[C@H](Cc1ccccc1)NC(=O)[C@@H](CC(C)C)NC(=O)[C@H](CCCCNC(=O)c1ccccc1)NC(=O)OC(C)(C)C)C(=O)N[C@@H](Cc1ccccc1)C(=O)O |
| 2.1 | CC(C)C[C@@H](NC(=O)[C@H](CC1=CCCCC1)NC(=O)[C@@H](CC(C)C)NC(=O)[C@H](Cc1ccc(C(=O)c2ccccc2)cc1)NC(=O)OC(C)(C)C)C(=O)N[C@@H](Cc1ccccc1)C(=O)O |
| > 1000 | CC(C)C[C@@H](NC(=O)[C@H](CCCCNC(=O)OC(C)(C)C)NC(=O)[C@@H](CC(C)C)NC(=O)[C@H](Cc1ccccc1)NC(=O)OC(C)(C)C)C(=O)N[C@@H](Cc1ccccc1)C(=O)O |
| 130 | CC(C)C[C@H](NC(=O)[C@@H](CC(C)C)NC(=O)[C@H](Cc1ccccc1)NC(=O)[C@@H](CC(C)C)NC(=O)[C@H](Cc1ccccc1)NC(=O)OC(C)(C)C)C(=O)O |
| 420 | CC(C)C[C@@H](NC(=O)[C@H](Cc1ccccc1)NC(=O)OC(C)(C)C)C(=O)N[C@@H](Cc1ccccc1)C(=O)N[C@@H](C)C(=O)N[C@@H](Cc1ccccc1)C(=O)O |
| 90 | CC(C)C[C@@H](NC(=O)[C@H](Cc1ccccc1)NC(=O)[C@@H](CC(C)C)NC(=O)[C@H](Cc1cn(C=O)c2ccccc12)NC(=O)OC(C)(C)C)C(=O)N[C@@H](Cc1ccccc1)C(=O)O |
| 260 | CC(C)C[C@@H](NC(=O)[C@H](Cc1ccccc1)NC(=O)OC(C)(C)C)C(=O)N[C@@H](Cc1ccccc1)C(=O)N[C@H](CC(C)C)C(=O)N[C@H](C(=O)O)C(C)C |
| 16 | CC(C)C[C@@H](NC(=O)[C@H](Cc1ccccc1)NC(=O)[C@@H](CC(C)C)NC(=O)[C@H](Cc1ccc(C(=O)c2ccccc2)cc1)NC(=O)OC(C)(C)C)C(=O)N[C@@H](Cc1ccccc1)C(=O)O |

| Kd [nM] | Compound |
| --- | --- |
| 260 | CC(C)C[C@@H](NC(=O)[C@H](Cc1ccccc1)NC(=O)[C@H](C)NC(=O)[C@H](Cc1ccccc1)NC(=O)OC(C)(C)C)C(=O)N[C@@H](Cc1ccccc1)C(=O)O |
| 68 | CC(C)C[C@@H](NC(=O)[C@H](Cc1ccccc1)NC(=O)[C@@H](CC(C)C)NC(=O)[C@H](Cc1ccccc1)NC(=O)OC(C)(C)C)C(=O)N[C@@H](Cc1ccc(OC(C)(C)C)cc1)C(=O)O |
| 130 | CC(C)C[C@@H](NC(=O)[C@H](Cc1ccccc1)NC(=O)OC(C)(C)C)C(=O)N[C@@H](Cc1ccccc1)C(=O)N[C@H](CC(C)C)C(=O)N[C@H](C(=O)O)[C@@H](C)OC(C)(C)C |
| 170 | CC(C)C[C@@H](NC(=O)[C@H](C)NC(=O)OC(C)(C)C)C(=O)N[C@@H](Cc1ccccc1)C(=O)N[C@H](CC(C)C)C(=O)N[C@@H](Cc1ccccc1)C(=O)O |
| 280 | CC(C)C[C@@H](NC(=O)[C@H](C)NC(=O)[C@@H](CC(C)C)NC(=O)[C@H](Cc1ccccc1)NC(=O)OC(C)(C)C)C(=O)N[C@@H](Cc1ccccc1)C(=O)O |
| 62 | CC(C)C[C@@H](NC(=O)[C@H](Cc1ccccc1)NC(=O)[C@@H](CC(C)C)NC(=O)[C@H](Cc1ccc(OC(C)(C)C)cc1)NC(=O)OC(C)(C)C)C(=O)N[C@@H](Cc1ccccc1)C(=O)O |
| 75 | CC(C)C[C@@H](NC(=O)[C@H](Cc1ccccc1)NC(=O)[C@@H](CC(C)C)NC(=O)[C@H](Cc1ccc(Cl)cc1)NC(=O)OC(C)(C)C)C(=O)N[C@@H](Cc1ccccc1)C(=O)O |
| 6.9 | CC(C)C[C@@H](NC(=O)[C@H](CC1=CCCCC1)NC(=O)[C@@H](CC(C)C)NC(=O)[C@H](Cc1ccc(C(=O)c2ccccc2)cc1)NC(=O)OC(C)(C)C)C(=O)N[C@@H](CC1CCCCC1)C(=O)O |
| 120 | CC(C)C[C@@H](NC(=O)[C@H](Cc1ccccc1)NC(=O)[C@@H](CC(C)C)NC(=O)[C@H](Cc1ccccc1)NC(=O)OC(C)(C)C)C(=O)N[C@@H](Cc1cn(C(=O)OC(C)(C)C)c2ccccc12)C(=O)O |
| 77 | CC(C)C[C@@H](NC(=O)[C@H](Cc1ccccc1)NC(=O)[C@@H](CC(C)C)NC(=O)[C@H](Cc1ccccc1)NC(=O)OC(C)(C)C)C(=O)N[C@@H](CC1CCCCC1)C(=O)O |
| 200 | CC(C)C[C@H](NC(=O)OC(C)(C)C)C(=O)N[C@H](CC(C)C)C(=O)N[C@@H](Cc1ccccc1)C(=O)N[C@H](CC(C)C)C(=O)N[C@@H](Cc1ccccc1)C(=O)O |
| 130 | CSCC[C@H](NC(=O)[C@@H](CC(C)C)NC(=O)[C@H](Cc1ccccc1)NC(=O)OC(C)(C)C)C(=O)N[C@H](CC(C)C)C(=O)N[C@@H](Cc1ccccc1)C(=O)O |
| 190 | CC(C)C[C@@H](NC(=O)[C@H](Cc1ccccc1)NC(=O)[C@@H](CC(C)C)NC(=O)[C@H](Cc1c[nH]c2ccccc12)NC(=O)OC(C)(C)C)C(=O)N[C@@H](Cc1ccccc1)C(=O)O |
| 730 | CC(C)C[C@@H](NC(=O)[C@H](Cc1ccccc1)NC(=O)[C@@H](CC(C)C)NC(=O)[C@H](CCCCN)NC(=O)OC(C)(C)C)C(=O)N[C@@H](Cc1ccccc1)C(=O)O |
| 510 | CC(C)C[C@@H](NC(=O)[C@H](CC(=O)OC(C)(C)C)NC(=O)[C@@H](CC(C)C)NC(=O)[C@H](Cc1ccccc1)NC(=O)OC(C)(C)C)C(=O)N[C@@H](Cc1ccccc1)C(=O)O |
| > 1000 | CC(C)C[C@@H](NC(=O)[C@H](Cc1ccccc1)NC(=O)OC(C)(C)C)C(=O)N[C@H](C(=O)N[C@H](CC(C)C)C(=O)N[C@@H](Cc1ccccc1)C(=O)O)C(C)C |
| 150 | CC(C)C[C@@H](NC(=O)[C@H](Cc1ccccc1)NC(=O)[C@@H](CC(C)C)NC(=O)[C@H](Cc1ccccc1)NC(=O)OC(C)(C)C)C(=O)N[C@@H](Cc1c[nH]c2ccccc12)C(=O)O |
| 100 | CC(C)C[C@@H](NC(=O)[C@H](Cc1ccccc1)NC(=O)[C@@H](CC(C)C)NC(=O)[C@H](COC(C)(C)C)NC(=O)OC(C)(C)C)C(=O)N[C@@H](Cc1ccccc1)C(=O)O |

— ChEMBL document CHEMBL3352620, “Development of potent antagonists for formyl peptide receptor 1 based on Boc-Phe-D-Leu-Phe-D-Leu-Phe-OH” (Bioorg Med Chem, 2014)
